According to patent US20240270821A1, “GIP/GLP1/GCG TRI-RECEPTOR AGONISTS AND USES THEREOF” (priority 2023, published 2024):
Like-named read-outs stand apart in the source and are kept apart here. Starred links: 1 amine or outer side, 2 acyl side, 3 side chain; linkers in the order of their positions; H or OH if unused. Non-standard residues stand in square brackets, D forms with d. Groups on a side chain read outwards from the residue. *: point of attachment. C18 diacid = O=C(O)CCCCCCCCCCCCCCCCC(=O)*; αMePhe(2-F) = C[C@](N)(Cc1ccccc1F)C(=O)O; γGlu = O=C(O)[C@H](CCC(=O)[*:2])N[*:1]; 4Pal = N[C@@H](Cc1ccncc1)C(=O)O; Aib = CC(C)(N)C(=O)O

Key:
Type in all cases: cell-based
hGcgR = hGcgR (Homo sapiens, UniProt P47871); assay: Functional cAMP activation in the presence of 0.1% casein (no HSA); settings: read-out: Relative cAMP EC50, hGcgR;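 further: intracellular cAMP rise after 30 min at 37 °C, read by HTRF against a cAMP standard curve, scaled from buffer only (0%) to maximal control ligand response (100%)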
hGIPR [1] = target: T1, hGIPR (Homo sapiens, UniProt P48546); assay: as above; settings: read-out: Relative cAMP EC50, hGIPR;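 further: intracellular cAMP rise after 30 min at 37 °C read by HTRF against a standard curve, scaled between buffer alone (0%) and top control ligand concentration (100%), four-parameter fit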
T1 sequence (P48546 22-466): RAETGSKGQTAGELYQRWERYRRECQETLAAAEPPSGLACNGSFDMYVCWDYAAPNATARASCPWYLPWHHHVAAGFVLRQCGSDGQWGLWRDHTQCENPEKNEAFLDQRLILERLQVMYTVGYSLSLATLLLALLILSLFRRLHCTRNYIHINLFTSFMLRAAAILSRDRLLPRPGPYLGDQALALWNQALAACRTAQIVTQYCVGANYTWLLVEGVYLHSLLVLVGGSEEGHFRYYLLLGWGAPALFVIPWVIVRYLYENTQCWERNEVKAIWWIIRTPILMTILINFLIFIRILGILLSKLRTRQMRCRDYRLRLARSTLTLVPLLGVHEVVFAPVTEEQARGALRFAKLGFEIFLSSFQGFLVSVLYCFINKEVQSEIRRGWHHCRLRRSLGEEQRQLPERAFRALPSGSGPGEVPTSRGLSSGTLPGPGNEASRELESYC

hGIPR [2] = target: T1, hGIPR; assay: Functional cAMP activity in the presence of 1% HSA; settings: read-out: cAMP Rel EC50, hGIPR
hGLP-1R [3] = target: T2, hGLP-1R (Homo sapiens, UniProt P43220); assay: Functional cAMP activation in the presence of 0.1% casein (no HSA); settings: read-out: Relative cAMP EC50, hGLP-1R;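 further: intracellular cAMP rise after 30 min at 37 °C read by HTRF, normalized between buffer only (0%) and maximal control ligand (100%), four-parameter variable-slope fit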
hGLP-1R [4] = target: T2, hGLP-1R; assay: Functional cAMP activity in the presence of 1% HSA; settings: read-out: cAMP Rel EC50, hGLP-1R
human GcgR = human GcgR (Homo sapiens, UniProt P47871); assay: Functional cAMP activity in the presence of 1% HSA; settings: read-out: cAMP Rel EC50, hGcgR
[5] = in the presence of 0.1% casein (no HSA), geometric mean

T2 sequence (P43220 24-463): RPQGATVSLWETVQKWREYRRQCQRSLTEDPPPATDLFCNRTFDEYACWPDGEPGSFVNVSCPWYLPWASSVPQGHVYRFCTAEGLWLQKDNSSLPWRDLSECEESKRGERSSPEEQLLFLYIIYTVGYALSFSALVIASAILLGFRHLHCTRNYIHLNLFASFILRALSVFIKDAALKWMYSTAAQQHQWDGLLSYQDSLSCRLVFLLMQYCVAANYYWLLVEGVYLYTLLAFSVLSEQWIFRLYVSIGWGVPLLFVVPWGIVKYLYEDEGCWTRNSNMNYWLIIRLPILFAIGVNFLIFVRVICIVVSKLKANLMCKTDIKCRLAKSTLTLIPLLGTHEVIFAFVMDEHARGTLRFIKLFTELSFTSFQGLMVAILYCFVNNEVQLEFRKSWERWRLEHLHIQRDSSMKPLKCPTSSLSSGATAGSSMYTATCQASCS
human GcgR, sequence (P47871 26-477): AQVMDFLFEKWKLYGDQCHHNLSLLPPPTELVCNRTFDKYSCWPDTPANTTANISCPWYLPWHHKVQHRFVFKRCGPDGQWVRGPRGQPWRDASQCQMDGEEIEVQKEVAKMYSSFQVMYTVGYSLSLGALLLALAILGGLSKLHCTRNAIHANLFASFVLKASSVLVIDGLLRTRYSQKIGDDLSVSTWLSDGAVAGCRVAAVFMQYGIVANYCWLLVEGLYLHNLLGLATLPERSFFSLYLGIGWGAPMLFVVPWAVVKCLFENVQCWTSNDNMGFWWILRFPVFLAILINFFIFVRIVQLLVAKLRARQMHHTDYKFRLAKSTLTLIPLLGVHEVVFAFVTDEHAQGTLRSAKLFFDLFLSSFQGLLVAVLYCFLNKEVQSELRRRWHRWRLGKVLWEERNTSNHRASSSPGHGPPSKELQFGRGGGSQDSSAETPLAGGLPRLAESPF
hGcgR, sequence (P47871 26-477): as above

| Compound | EC50 (hGcgR) [nM] | EC50 (hGIPR [1]) [nM] | EC50 (hGIPR [2]) [nM] | EC50 (hGLP-1R [3]) [nM] | EC50 (hGLP-1R [4]) [nM] | EC50 (human GcgR) [nM] | EC50 (hGcgR; [5]) [nM] | EC50 (hGIPR [1]; [5]) [nM] | EC50 (hGLP-1R [3]; [5]) [nM] | EC50 (hGLP-1R [4]; HEK-293 clonal cells expressing hGLP-1R, in the presence of 1% HSA, geometric mean of relative EC50) [nM] | EC50 (human GcgR; HEK-293 clonal cells expressing hGcgR, in the presence of 1% HSA, geometric mean of relative EC50) [nM] |
| --- | --- | --- | --- | --- | --- | --- | --- | --- | --- | --- | --- |
| H-Y[Aib]QGT[αMePhe(2-F)]TSD[4Pal]SILLDKK([γGlu-γGlu-C18 diacid])AQ[Aib]AFIE[4Pal]LEEGGPSSGAPPPSGTE-NH2 [Example 550] | 11.7 | 0.0876 | 5.94 | 2.12 | 262 | 996 |  |  |  |  |  |
| CC[C@H](C)[C@H](NC(=O)[C@H](Cc1ccccc1)NC(=O)[C@H](CCC(N)=O)NC(=O)C(C)(C)NC(=O)[C@H](CCC(N)=O)NC(=O)[C@H](C)NC(=O)[C@H](CCCCNC(=O)COCCOCCNC(=O)CC[C@H](NC(=O)CCCCCCCCCCCCCCCCCCC(=O)O)C(=O)O)NC(=O)[C@H](CCCCN)NC(=O)[C@H](CC(=O)O)NC(=O)[C@H](CC(C)C)NC(=O)[C@](C)(CC(C)C)NC(=O)[C@H](CCCCN)NC(=O)[C@H](CO)NC(=O)[C@H](Cc1ccccc1)NC(=O)[C@H](CC(=O)O)NC(=O)[C@H](CO)NC(=O)[C@@H](NC(=O)[C@H](Cc1ccccc1)NC(=O)[C@@H](NC(=O)CNC(=O)[C@H](CCC(N)=O)NC(=O)C(C)(C)NC(=O)[C@@H](N)Cc1ccc(O)cc1)[C@@H](C)O)[C@@H](C)O)C(=O)N[C@@H](CCC(=O)O)C(=O)N[C@@H](Cc1c[nH]c2ccccc12)C(=O)N[C@@H](CC(C)C)C(=O)N[C@@H](CC(C)C)C(=O)N[C@@H](CCC(=O)O)C(=O)NCC(=O)NCC(=O)N1CCC[C@H]1C(=O)N[C@@H](CO)C(=O)N[C@@H](CO)C(=O)NCC(=O)N[C@@H](C)C(=O)N1CCC[C@H]1C(=O)N1CCC[C@H]1C(=O)N1CCC[C@H]1C(=O)N[C@@H](CO)C(=O)N[C@@H](CCC(=O)O)C(=O)NCC(N)=O [Example 38] |  |  | 102 |  | 884 | 2770 | 9.5 | 0.304 |  |  |  |
| CC[C@H](C)[C@H](NC(=O)[C@H](CC(C)C)NC(=O)[C@H](Cc1ccc(O)cc1)NC(=O)[C@H](CCC(=O)O)NC(=O)[C@@H](NC(=O)[C@H](Cc1ccccc1)NC(=O)[C@H](C)NC(=O)[C@](C)(Cc1ccncc1)NC(=O)[C@H](CCC(N)=O)NC(=O)[C@H](C)NC(=O)[C@H](CCCCNC(=O)COCCOCCNC(=O)CC[C@H](NC(=O)CCCCCCCCCCCCCCCCC(=O)O)C(=O)O)NC(=O)[C@H](CCCCN)NC(=O)[C@H](CC(=O)O)NC(=O)[C@H](CC(C)C)NC(=O)[C@](C)(CC(C)C)NC(=O)[C@H](CCC(N)=O)NC(=O)[C@H](CO)NC(=O)[C@H](Cc1ccncc1)NC(=O)[C@H](CC(=O)O)NC(=O)[C@H](CO)NC(=O)[C@@H](NC(=O)[C@H](Cc1ccccc1)NC(=O)[C@@H](NC(=O)CNC(=O)[C@H](CCC(N)=O)NC(=O)C(C)(C)NC(=O)[C@@H](N)Cc1ccc(O)cc1)[C@@H](C)O)[C@@H](C)O)[C@@H](C)CC)C(=O)N[C@@H](CCC(=O)O)C(=O)NCC(=O)NCC(=O)N[C@@H](CCC(=O)O)C(=O)N[C@@H](CO)C(=O)N[C@@H](CO)C(=O)NCC(=O)N[C@@H](C)C(=O)N1CCC[C@H]1C(=O)N1CCC[C@H]1C(=O)N1CCC[C@H]1C(=O)N[C@@H](CO)C(=O)NCC(=O)N[C@@H](CO)C(N)=O [Example 793] |  |  |  |  | 559 | 1660 | 3.79 | 0.834 | 3.19 |  |  |
| CC[C@H](C)[C@H](NC(=O)[C@H](Cc1ccccc1)NC(=O)[C@H](C)NC(=O)C(C)(C)NC(=O)[C@H](CCC(N)=O)NC(=O)[C@H](C)NC(=O)[C@H](CCCCNC(=O)COCCOCCNC(=O)CC[C@H](NC(=O)CCCCCCCCCCCCCCCCC(=O)O)C(=O)O)NC(=O)[C@H](CCCCN)NC(=O)[C@H](CC(=O)O)NC(=O)[C@H](CC(C)C)NC(=O)[C@](C)(CC(C)C)NC(=O)[C@H](CCCN)NC(=O)[C@H](CO)NC(=O)[C@H](Cc1ccccc1)NC(=O)[C@H](CC(=O)O)NC(=O)[C@H](CO)NC(=O)[C@@H](NC(=O)[C@H](Cc1ccccc1)NC(=O)[C@@H](NC(=O)CNC(=O)[C@H](CCC(N)=O)NC(=O)C(C)(C)NC(=O)[C@@H](N)Cc1ccc(O)cc1)[C@@H](C)O)[C@@H](C)O)C(=O)N[C@@H](CCC(=O)O)C(=O)N[C@@H](Cc1ccc(O)cc1)C(=O)N[C@@H](CC(C)C)C(=O)N[C@@H](CC(C)C)C(=O)N[C@@H](CCC(=O)O)C(=O)NC(C)(C)C(=O)NCC(=O)N[C@@H](CCC(=O)O)C(=O)N[C@@H](CO)C(=O)N[C@@H](CO)C(=O)NCC(=O)N[C@@H](C)C(=O)N1CCC[C@H]1C(=O)N1CCC[C@H]1C(=O)N1CCC[C@H]1C(=O)N[C@@H](CO)C(=O)NCC(=O)N[C@@H](CCC(=O)O)C(N)=O [Example 246] |  |  |  |  | 845 | 639 | 2.38 | 0.106 | 3.91 |  |  |
| CC[C@H](C)[C@H](NC(=O)[C@H](CC(C)C)NC(=O)[C@H](Cc1ccc(O)cc1)NC(=O)[C@H](CCC(=O)O)NC(=O)[C@@H](NC(=O)[C@H](Cc1ccccc1)NC(=O)[C@H](C)NC(=O)[C@](C)(Cc1ccncc1)NC(=O)[C@H](CCC(N)=O)NC(=O)[C@H](C)NC(=O)[C@H](CCCCNC(=O)COCCOCCNC(=O)CC[C@H](NC(=O)CCCCCCCCCCCCCCCCC(=O)O)C(=O)O)NC(=O)[C@H](CCCCN)NC(=O)[C@H](CC(=O)O)NC(=O)[C@H](CC(C)C)NC(=O)[C@](C)(CC(C)C)NC(=O)[C@H](CCCN)NC(=O)[C@H](CO)NC(=O)[C@H](Cc1ccncc1)NC(=O)[C@H](CC(=O)O)NC(=O)[C@H](CO)NC(=O)[C@@H](NC(=O)[C@H](Cc1ccccc1)NC(=O)[C@@H](NC(=O)CNC(=O)[C@H](CCC(N)=O)NC(=O)C(C)(C)NC(=O)[C@@H](N)Cc1ccc(O)cc1)[C@@H](C)O)[C@@H](C)O)[C@@H](C)CC)C(=O)N[C@@H](CCC(=O)O)C(=O)NCC(=O)NCC(=O)N[C@@H](CCC(=O)O)C(=O)N[C@@H](CO)C(=O)N[C@@H](CO)C(=O)NCC(=O)N[C@@H](C)C(=O)N1CCC[C@H]1C(=O)N1CCC[C@H]1C(=O)N1CCC[C@H]1C(=O)N[C@@H](CO)C(=O)NCC(=O)N[C@@H](CO)C(N)=O [Example 791] |  |  | 143 |  | 980 | 456 | 2.36 | 0.979 |  |  |  |
| CC[C@H](C)[C@H](NC(=O)[C@H](Cc1ccccc1)NC(=O)[C@H](C)NC(=O)C(C)(C)NC(=O)[C@H](C)NC(=O)[C@H](C)NC(=O)[C@H](CCCCNC(=O)COCCOCCNC(=O)CC[C@H](NC(=O)CCCCCCCCCCCCCCCCC(=O)O)C(=O)O)NC(=O)[C@H](CCCCN)NC(=O)[C@H](CC(=O)O)NC(=O)[C@H](CC(C)C)NC(=O)[C@](C)(CC(C)C)NC(=O)[C@@H](NC(=O)[C@H](CO)NC(=O)[C@H](Cc1ccc(O)cc1)NC(=O)[C@H](CC(=O)O)NC(=O)[C@H](CO)NC(=O)[C@@H](NC(=O)[C@](C)(Cc1ccccc1F)NC(=O)[C@@H](NC(=O)CNC(=O)[C@H](CCC(N)=O)NC(=O)C(C)(C)NC(=O)[C@@H](N)Cc1c[nH]cn1)[C@@H](C)O)[C@@H](C)O)[C@@H](C)CC)C(=O)N[C@@H](CCC(=O)O)C(=O)N[C@@H](Cc1ccc(O)cc1)C(=O)N[C@@H](CC(C)C)C(=O)N[C@H](C(=O)N[C@@H](CCC(=O)O)C(=O)N[C@H](C(=O)NCC(=O)N1CCC[C@H]1C(=O)N[C@@H](CO)C(=O)N[C@@H](CO)C(=O)NCC(=O)N[C@@H](CCC(=O)O)C(=O)N1CCC[C@H]1C(=O)N1CCC[C@H]1C(=O)N1CCC[C@H]1C(=O)N[C@@H](CO)C(=O)N[C@@H](CCC(=O)O)C(=O)NCC(N)=O)[C@@H](C)O)[C@@H](C)CC [Example 291] |  |  |  |  |  |  | 1.88 | 0.26 | 0.22 | 24.5 | 311 |
